Assay results from paper PMC6141559, “Human-like smelling of a rose scent using an olfactory receptor nanodisc-based bioelectronic nose” (Scientific Reports, 2018).

Molecular target: T1, human olfactory receptor 1A2 (hOR1A2) (Homo sapiens, UniProt Q9Y585)
T1 construct: gene OR1A2; hOR1A2 expressed in E. coli, purified and embedded in MSP1E3D1 nanodiscs
T1 sequence (Q9Y585 1-309): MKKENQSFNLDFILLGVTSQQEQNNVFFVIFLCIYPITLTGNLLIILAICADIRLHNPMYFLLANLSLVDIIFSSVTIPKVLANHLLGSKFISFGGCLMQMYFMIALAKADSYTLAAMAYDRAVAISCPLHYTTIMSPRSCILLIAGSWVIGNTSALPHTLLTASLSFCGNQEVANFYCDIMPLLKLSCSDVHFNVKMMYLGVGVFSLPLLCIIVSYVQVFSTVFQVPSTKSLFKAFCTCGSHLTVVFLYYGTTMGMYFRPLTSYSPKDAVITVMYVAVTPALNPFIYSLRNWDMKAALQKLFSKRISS
Assay: nanodisc-functionalized floating-electrode CNT-FET biosensor, equilibrium (association) constant from Hill-Langmuir fit; also HEK-293 luciferase assay (Kd […])
Assay type: binding
Conditions: read-out: nanodisc-functionalized floating-electrode CNT-FET biosensor, equilibrium (assoc) (converted)

- Kd: 385 nM
Structure (SMILES): CC(C)=CCCC(C)CCO (stereo not shown) [citronellol]
